# Reference: patent publication US10993936B2, “Method of treating one or more symptoms of pulmonary fibrosis by administering inhibitors of nicotinamide phosphoribotransferase” (Arizona Board of Regents on Behalf of the University of …, priority 2017, dated 2021)
# What was measured:
# H2O2-induced apoptosis = H2O2-induced apoptosis defined by the TUNEL assay; assay type: cell-based; settings: FIG. 14
# Procedure: Slices were first incubated with anti-αSMA overnight at 4° C. After the TUNEL protocol, slides were mounted in DAPI-containing media (Vector Labs) and cells were visualized on a Zeiss fluorescent microscope. TUNEL-positive cells were counted per field in 15-20 fields and normalized to total cells from the DAPI stain.
# FIGS. 12A-D show chemical structure of the NAMPT inhibitor, FK-866 (FIG. 12A) which is divided into three regions (FIG. 12B) and varied by replacing with N-heterocycles to generate novel FK866 analogs: MS-1-82 (FIG. 12C), Rari049 (FIG. 12D), Alpii135 (FIG. 12E); FIG. 13 is a bar graph showing normalized NAMPT activity in the present of FK866 and FK analogues MS-1-82, Rari049, Alpii135 at […] concentrations; FIG. 14 is a bar graph showing the role of Nampt enzymatic activity in H2O2-induced apoptosis defined by the TUNEL assay.
# IPF fibroblasts = assay: staurosporine-induced apoptosis in IPF lung myofibroblasts; assay type: cell-based, human; settings: IPF fibroblasts pre-treated with FK-866; FIG. 11B
# Excerpt: Human lung tissue and fibroblasts were isolated from the lungs of patients with a confirmed diagnosis of IPF as previously described (18), under an approved protocol by the Institutional Review Board. Fibroblasts were isolated and evaluated for apoptosis, senescence, and ROS levels by immunofluorescence, immunohistochemistry, and/or biochemical assays.
# Cells were lysed using caspase lysis buffer and analyzed for activated caspase 3 using the BioVision Caspase 3 Fluorometric Assay Kit according to the manufacturer's instructions (BioVision, Inc, Milpitas Calif.).
# Nampt contributes to mouse and human IPF fibroblasts resistance to apoptosis. Staurosporine (300 nM, 8 h)-induced expression of apoptotic markers, cleaved caspase 3 and PARP (FIG. 11A) was increased in lung fibroblasts isolated from Nampt+/− compared with WT mice.
# [1] = MCT-PH preventive therapy study; assay type: in vivo; settings: preliminary studies
# Excerpt: To generate functional analogs of the NAMPT inhibitor FK-866, the FK-866 structure was divided into three regions and varied by replacing with N-heterocycles to generate FK866 analogs.
Structure (SMILES),H2O2-induced apoptosis (H2O2-induced apoptosis),staurosporine-induced apoptosis (IPF fibroblasts),hyper-trophy-ratio of RV and LV plus septal-S weight (RVH-RV) [1],right ventricular systolic pressure (RVSP) [1]
"O=C(/C=C/c1cccnc1)NCCCCC1CCN(C(=O)c2ccccc2)CC1 [FK-866, (E)-N-[4-(1-Benzoylpiperidin-4-yl)butyl]-3-pyridin-3-ylprop-2-enamide]",blocks H2O2-induced apoptosis,restored apoptosis,–,–
O=C(/C=C/c1cccnc1)NCCCCCCn1c(-c2ccccc2)cc2ccccc21 [Rari049],–,–,reducing,reducing
